In patent US20230116972A1, “CD38 MODULATORS AND METHODS OF USE THEREOF” (Cytokinetics, Inc., priority 2021, published 2023):

What was measured:
mouse CD38 = target: T1, mouse CD38 (Mus musculus, UniProt P56528); assay: mouse recombinant CD38 enzyme assay (hydrolysis of NAD+); type: biochemical; settings: read-out: mCD38 BioChem IC50
T1 sequence (P56528 1-304): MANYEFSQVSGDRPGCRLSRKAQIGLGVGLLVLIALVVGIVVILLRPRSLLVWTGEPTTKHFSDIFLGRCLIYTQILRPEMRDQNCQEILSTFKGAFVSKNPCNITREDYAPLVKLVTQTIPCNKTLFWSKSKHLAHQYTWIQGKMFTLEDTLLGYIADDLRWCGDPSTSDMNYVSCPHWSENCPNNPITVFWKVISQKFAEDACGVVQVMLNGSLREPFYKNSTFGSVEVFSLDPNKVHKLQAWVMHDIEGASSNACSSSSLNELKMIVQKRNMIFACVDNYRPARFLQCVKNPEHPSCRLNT
Outline: (§1)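 Cell-free recombinant enzyme, NAD+ substrate, 60 min at RT. Stop/detect: ethanol/ADH plus semicarbazide and a CD38 inhibitor (15 min), then NaOH, then resazurin/diaphorase (15 min). Remaining NAD+ read as resorufin fluorescence, Ex/Em 540/590 nm. Inhibition fitted from dose responses.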

human CD38 = target: T2, human CD38 (Homo sapiens, UniProt P28907); assay: human recombinant CD38 enzyme assay (hydrolysis of NAD+); type: biochemical; settings: human recombinant CD38, 0.4 nM enzyme, 62.5 μM NAD+; read-out: hCD38 BioChem IC50
T2 sequence (P28907 1-300): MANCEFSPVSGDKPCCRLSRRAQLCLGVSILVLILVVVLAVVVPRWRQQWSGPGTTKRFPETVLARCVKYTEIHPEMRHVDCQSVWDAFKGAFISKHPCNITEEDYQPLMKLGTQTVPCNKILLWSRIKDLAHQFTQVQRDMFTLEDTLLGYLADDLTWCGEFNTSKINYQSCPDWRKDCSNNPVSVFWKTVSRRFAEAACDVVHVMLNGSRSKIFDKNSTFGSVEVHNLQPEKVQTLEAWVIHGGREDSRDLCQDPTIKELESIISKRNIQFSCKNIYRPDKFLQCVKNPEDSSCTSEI
Outline: as §1

[1] = target: T3, endogenous CD38 in HL60 cells (Homo sapiens, UniProt P28907); assay: cellular CD38 assay in HL60 cells (cellular NAD levels); type: cell-based; settings: all-trans retinoic acid, 24 hours, read-out: hCD38 HL60 ATRA NAD Cell Diaphorase IC50
T3 construct: endogenous in cells; host or cells: HL60 (leukemic cells, treated with all-trans retinoic acid)
T3 sequence (P28907 1-300): T2 sequence (P28907 1-300)
Description: The compounds described herein were also assayed for their ability to inhibit the endogenous CD38 in a native cellular environment in the cellular CD38 assay, which measures the ability of the compound to modulate cellular NAD levels. […] The assays were initiated by plating 20 μL of HL60 cells in culture medium, at a density of 20000 cells per well to a 384-well Corning™ Multiwell Plates. Compounds in DMSO were added to the plates in a volume of 120 nL using the Labcyte Echo Liquid Handlers. […] The plates are then incubated for 24 hours. 50 μL of a readout-solution containing 0.2 U/mL Diaphorase enzyme, 40 uM resazurin, 10 uM FMN, 0.8 U/mL Alcohol dehydrogenase, 3% ethanol, 0.4 mg/mL bovine serum albumin, 0.2% Triton X-100 in 100 mM Tris-HCl, 30 mM EDTA, pH 8.4. The plates were read for fluorescence (Excitation/Emission=540 nm/590 nm) using an EnVision plate reader after 60 mins of incubation at ambient temperature. Note that, in Table 5, the “Compound No” corresponds to the compound numbers in Table 1.

Structure (SMILES) | IC50 (mouse CD38) [nM] | IC50 (human CD38) [nM] | IC50 [1] [nM]
O=C(N[C@H]1CC[C@H](O)CC1)c1nccc(-n2ccnc2)n1 [Compound 257, N-((1r,4r)-4-hydroxycyclohexyl)-4-(1H-imidazol-1-yl)pyrimidine-2-carboxamide] | 43.4 | 124 | 4520
O=C(NC1CCOCC1)c1cccc(-n2ccnc2)n1 [Compound 12, 6-(1H-imidazol-1-yl)-N-(tetrahydro-2H-pyran-4-yl)picolinamide] | 122 | 296 | 3990
O=C(N[C@H]1CC[C@H](OC(F)(F)F)CC1)c1nccc(-n2ccnc2)n1 [Compound 308, 4-(1H-imidazol-1-yl)-N-((1r,4r)-4-(trifluoromethoxy)cyclohexyl)pyrimidine-2-carboxamide] | 94.3 | 125 | 6270
Cn1cncc1-c1ccnc(C(=O)N[C@H]2CC[C@H](C(C)(C)O)CC2)n1 [Compound 254, N-((1r,4r)-4-(2-hydroxypropan-2-yl)cyclohexyl)-4-(1-methyl-1H-imidazol-5-yl)pyrimidine-2-carboxamide] | 31.2 | 93.5 | 3670
O=C(N[C@H]1CC[C@H](C(F)F)CC1)c1ccnc(-c2cncs2)n1 [Compound 87, N-((1r,4r)-4-(difluoromethyl)cyclohexyl)-2-(thiazol-5-yl)pyrimidine-4-carboxamide] | 138 | 562 | 10100
CO[C@H]1CC[C@H](NC(=O)c2cc(C3CCOCC3)nc(-n3ccnc3)n2)CC1 [Compound 193, 2-(1H-imidazol-1-yl)-N-((1r,4r)-4-methoxycyclohexyl)-6-(tetrahydro-2H-pyran-4-yl)pyrimidine-4-carboxamide] | 39.8 | 131 | 11100
Cn1cncc1-c1ccnc(C(=O)N[C@H]2C[C@H](c3ccnc(C(F)(F)F)c3)C2)n1 [Compound 270, 4-(1-methyl-1H-imidazol-5-yl)-N-((1r,3r)-3-(2-(trifluoromethyl)pyridin-4-yl)cyclobutyl)pyrimidine-2-carboxamide] | 43.9 | 13.7 | 1130
COc1ncc(-c2cncn2C)nc1C(=O)Nc1ccc(C(F)(F)F)nc1 [Compound 279, 3-methoxy-6-(1-methyl-1H-imidazol-5-yl)-N-(6-(trifluoromethyl)pyridin-3-yl)pyrazine-2-carboxamide] | 42.6 | 5.1 | 865
O=C(Nc1ccc(C(F)(F)F)nc1)c1cc(C2CCOCC2)nc(-n2ccnc2)n1 [Compound 196, 2-(1H-imidazol-1-yl)-6-(tetrahydro-2H-pyran-4-yl)-N-(6-(trifluoromethyl)pyridin-3-yl)pyrimidine-4-carboxamide] | 19.3 | 25.4 | 3190
Cn1cncc1-c1cccc(C(=O)N[C@H]2CC[C@H](C(F)F)CC2)n1 [Compound 77, N-(4-(difluoromethyl)cyclohexyl)-6-(1-methyl-1H-imidazol-5-yl)picolinamide] | 32 | 131 | 3360
O=C(Nc1ccc(C(F)(F)F)nc1)c1nccc(-n2ccnc2)n1 [Compound 72, 4-(1H-imidazol-1-yl)-N-(6-(trifluoromethyl)pyridin-3-yl)pyrimidine-2-carboxamide] | 19 | 4 | 295

Stronger by IC50 (mouse CD38), values ahead:

IC50 (mouse CD38) [nM] | IC50 (human CD38) [nM] | IC50 [1] [nM] | Structure (SMILES)
6 | 4 | 509 | O=C(Nc1ccc(F)c(F)c1)c1cccc(-n2ccnc2)n1 [Compound 34, N-(3,4-difluorophenyl)-6-(1H-imidazol-1-yl)picolinamide]
7.1 | 21.4 | 6610 | Cn1cncc1-c1nc(C(=O)NC23CC(C(C)(C)O)(C2)C3)cc(C2CCOCC2)n1 [Compound 292, N-(3-(2-hydroxypropan-2-yl)bicyclo[1.1.1]pentan-1-yl)-2-(1-methyl-1H-imidazol-5-yl)-6-(tetrahydro-2H-pyran-4-yl)pyrimidine-4-carboxamide]
0.7 | 3.1 | 882 | Cn1cncc1-c1nc(C(=O)Nc2ccc(C(F)F)nc2)cc(C2CCC(F)(F)CC2)n1 [Compound 287, 6-(4,4-difluorocyclohexyl)-N-(6-(difluoromethyl)pyridin-3-yl)-2-(1-methyl-1H-imidazol-5-yl)pyrimidine-4-carboxamide]
2 | 10 | 1130 | Cc1cc(C(=O)N[C@H]2CC[C@H](C(F)F)CC2)nc(-n2ccnc2)n1 [Compound 120, N-((1r,4r)-4-(difluoromethyl)cyclohexyl)-2-(1H-imidazol-1-yl)-6-methylpyrimidine-4-carboxamide]
13 | 73 | 7850 | COCCO[C@H]1CC[C@H](NC(=O)c2cc(C(F)(F)F)cc(-n3ccnc3)n2)CC1 [Compound 61, 6-(1H-imidazol-1-yl)-N-(4-(2-methoxyethoxy)cyclohexyl)-4-(trifluoromethyl)picolinamide]
6 | 4 | 339 | O=C(Nc1cccnc1)c1ccnc(-n2ccnc2)n1 [Compound 37, 2-(1H-imidazol-1-yl)-N-(pyridin-3-yl)pyrimidine-4-carboxamide]
1 | 3 | 718 | O=C(Nc1ccc(C(F)F)nc1)c1cc(C2CC2)nc(-n2ccnc2)n1 [Compound 162, 6-cyclopropyl-N-(6-(difluoromethyl)pyridin-3-yl)-2-(1H-imidazol-1-yl)pyrimidine-4-carboxamide]
14.6 | 28.1 | 3720 | Cn1cncc1-c1ccnc(C(=O)N[C@H]2C[C@H](c3ccc(F)cc3F)C2)n1 [Compound 243, N-((1r,3r)-3-(2,4-difluorophenyl)cyclobutyl)-4-(1-methyl-1H-imidazol-5-yl)pyrimidine-2-carboxamide]
3 | 23 | 1630 | CO[C@H]1CC[C@H](NC(=O)c2cc(C)cc(-n3ccnc3)n2)CC1 [Compound 96, 6-(1H-imidazol-1-yl)-N-(4-methoxycyclohexyl)-4-methylpicolinamide]
1 | 24 | 2300 | COCCO[C@H]1CC[C@H](NC(=O)c2cc(C)nc(-c3cncn3C)n2)CC1 [Compound 155, N-((1r,4r)-4-(2-methoxyethoxy)cyclohexyl)-6-methyl-2-(1-methyl-1H-imidazol-5-yl)pyrimidine-4-carboxamide]
4 | 8 | 1780 | CC(C)c1cc(C(=O)Nc2ccc(C(F)(F)F)nc2)nc(-c2cncn2C)n1 [Compound 174, 6-isopropyl-2-(1-methyl-1H-imidazol-5-yl)-N-(6-(trifluoromethyl)pyridin-3-yl)pyrimidine-4-carboxamide]
15 | 76 | 1320 | O=C(NC1CC2C(C1)C2(F)F)c1cccc(-n2ccnc2)n1 (stereo not drawn) [Compound 135, N-(6,6-difluorobicyclo[3.1.0]hexan-3-yl)-6-(1H-imidazol-1-yl)picolinamide]
3 | 3 | 273 | Cc1cc(NC(=O)c2cccc(-n3ccnc3)n2)ccn1 [Compound 21, 6-(1H-imidazol-1-yl)-N-(2-methylpyridin-4-yl)picolinamide]
2 | 6 | 959 | O=C(Nc1cccnc1)c1cc(C(F)(F)F)cc(-n2ccnc2)n1 [Compound 40, 6-(1H-imidazol-1-yl)-N-(pyridin-3-yl)-4-(trifluoromethyl)picolinamide]
2 | 15 | 1470 | CO[C@H]1CC[C@H](NC(=O)c2cc([C@H]3CC[C@H](OC)CC3)nc(-c3cncn3C)n2)CC1 [Compound 316, N,6-bis((1r,4R)-4-methoxycyclohexyl)-2-(1-methyl-1H-imidazol-5-yl)pyrimidine-4-carboxamide]
